Measurements: US11713338B2, “Cyclic peptides multimers targeting α-4-β-7 integrin” (priority 2016, dated 2023)

Legend:
[1] = molecular target: T1, integrin α4β1 (RAMOS human cells adhering to VCAM-1) (Homo sapiens, UniProt P05556+P13612); experiment: Integrin α4β1-VCAM cell adhesion assay (RAMOS cells); type: cell-based; details: for IC50: Ramos cells adhering to VCAM, read-out: Ramos Adhesion α4β1/VCAM IC50; for Ratio Ramos/RPMI: ratio of cell adhesion IC50s, Ramos α4β1/VCAM over RPMI8866 α4β7/MAdCAM
T1 construct: Ramos cells, which express integrin α4β1; host or cells: RAMOS
How it was run: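 Human RAMOS cells loaded with calcein ([…] in PBS, 37° C, 30 min) allowed to adhere to VCAM-1-coated wells blocked with 1% milk. After PBS washes, adherent-cell fluorescence measured and cell-free well background subtracted to build dose-response.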

[2] = molecular target: T2, recombinant integrin α4β1 (Homo sapiens, UniProt P05556+P13612); experiment: Integrin α4β1—VCAM-1 competition ELISA; type: binding; details: for ELISA Assay Ratio β1/β7: ratio of ELISA IC50s, α4β1 over α4β7; for IC50: read-out: ELISA α4β1 Assay IC50
T2 construct: purchased R&D Systems 5397-A3-050
How it was run: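 Compound dilutions added to coated plate and shaken at room temperature for 2 h (300 rpm) to binding equilibrium. Wash buffer: 50 mM Tris, 100 mM NaCl, 1 mM MnCl2, 0.05% Tween. Bound Fc-tagged ligand detected with anti-human IgG Fc-HRP, 1 h at room temperature.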

T1 sequence (P13612 34-1032): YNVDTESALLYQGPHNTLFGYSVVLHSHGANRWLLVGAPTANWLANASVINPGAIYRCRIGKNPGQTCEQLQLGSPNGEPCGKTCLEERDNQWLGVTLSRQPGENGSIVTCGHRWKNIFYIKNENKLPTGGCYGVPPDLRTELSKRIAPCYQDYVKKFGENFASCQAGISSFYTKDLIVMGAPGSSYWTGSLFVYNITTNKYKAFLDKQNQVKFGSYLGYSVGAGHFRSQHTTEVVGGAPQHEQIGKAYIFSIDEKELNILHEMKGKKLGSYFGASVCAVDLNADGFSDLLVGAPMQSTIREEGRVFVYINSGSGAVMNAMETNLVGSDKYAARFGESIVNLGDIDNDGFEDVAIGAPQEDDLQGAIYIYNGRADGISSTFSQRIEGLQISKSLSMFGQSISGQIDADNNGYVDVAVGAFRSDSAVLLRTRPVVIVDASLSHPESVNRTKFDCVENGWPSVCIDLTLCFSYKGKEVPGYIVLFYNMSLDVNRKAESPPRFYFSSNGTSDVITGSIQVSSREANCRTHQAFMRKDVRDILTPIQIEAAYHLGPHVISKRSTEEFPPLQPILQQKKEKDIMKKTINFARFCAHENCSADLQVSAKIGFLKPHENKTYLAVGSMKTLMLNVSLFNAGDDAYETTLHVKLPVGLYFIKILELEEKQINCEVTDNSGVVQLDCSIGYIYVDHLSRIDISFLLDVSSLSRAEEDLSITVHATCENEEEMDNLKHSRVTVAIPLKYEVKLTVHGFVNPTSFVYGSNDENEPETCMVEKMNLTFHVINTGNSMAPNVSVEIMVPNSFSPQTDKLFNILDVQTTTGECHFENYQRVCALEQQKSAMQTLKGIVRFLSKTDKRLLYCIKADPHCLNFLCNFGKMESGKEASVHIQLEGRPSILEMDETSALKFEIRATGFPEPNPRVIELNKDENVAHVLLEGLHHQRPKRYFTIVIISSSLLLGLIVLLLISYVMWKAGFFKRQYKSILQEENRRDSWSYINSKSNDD
T1 sequence (P05556 21-798): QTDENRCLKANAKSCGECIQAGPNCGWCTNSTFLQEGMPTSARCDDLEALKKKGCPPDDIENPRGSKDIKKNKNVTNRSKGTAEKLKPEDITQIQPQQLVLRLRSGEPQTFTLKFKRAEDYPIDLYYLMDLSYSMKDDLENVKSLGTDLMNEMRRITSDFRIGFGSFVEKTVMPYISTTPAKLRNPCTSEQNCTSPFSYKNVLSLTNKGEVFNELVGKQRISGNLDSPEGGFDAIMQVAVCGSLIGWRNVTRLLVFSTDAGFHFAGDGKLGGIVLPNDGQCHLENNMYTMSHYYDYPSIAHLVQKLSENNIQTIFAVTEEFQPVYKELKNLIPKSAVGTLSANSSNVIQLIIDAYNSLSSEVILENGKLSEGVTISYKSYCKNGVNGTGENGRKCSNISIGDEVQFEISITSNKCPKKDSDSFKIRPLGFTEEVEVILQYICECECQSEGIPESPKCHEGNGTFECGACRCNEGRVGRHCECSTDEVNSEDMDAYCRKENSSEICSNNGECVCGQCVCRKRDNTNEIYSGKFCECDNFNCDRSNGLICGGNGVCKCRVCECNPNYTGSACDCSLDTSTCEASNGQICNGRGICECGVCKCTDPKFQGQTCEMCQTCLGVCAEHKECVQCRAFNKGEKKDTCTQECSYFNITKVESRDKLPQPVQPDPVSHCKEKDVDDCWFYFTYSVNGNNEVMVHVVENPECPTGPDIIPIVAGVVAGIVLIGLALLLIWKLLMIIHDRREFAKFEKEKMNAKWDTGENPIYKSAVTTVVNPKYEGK
T2 sequence (P13612 34-970 limits assumed): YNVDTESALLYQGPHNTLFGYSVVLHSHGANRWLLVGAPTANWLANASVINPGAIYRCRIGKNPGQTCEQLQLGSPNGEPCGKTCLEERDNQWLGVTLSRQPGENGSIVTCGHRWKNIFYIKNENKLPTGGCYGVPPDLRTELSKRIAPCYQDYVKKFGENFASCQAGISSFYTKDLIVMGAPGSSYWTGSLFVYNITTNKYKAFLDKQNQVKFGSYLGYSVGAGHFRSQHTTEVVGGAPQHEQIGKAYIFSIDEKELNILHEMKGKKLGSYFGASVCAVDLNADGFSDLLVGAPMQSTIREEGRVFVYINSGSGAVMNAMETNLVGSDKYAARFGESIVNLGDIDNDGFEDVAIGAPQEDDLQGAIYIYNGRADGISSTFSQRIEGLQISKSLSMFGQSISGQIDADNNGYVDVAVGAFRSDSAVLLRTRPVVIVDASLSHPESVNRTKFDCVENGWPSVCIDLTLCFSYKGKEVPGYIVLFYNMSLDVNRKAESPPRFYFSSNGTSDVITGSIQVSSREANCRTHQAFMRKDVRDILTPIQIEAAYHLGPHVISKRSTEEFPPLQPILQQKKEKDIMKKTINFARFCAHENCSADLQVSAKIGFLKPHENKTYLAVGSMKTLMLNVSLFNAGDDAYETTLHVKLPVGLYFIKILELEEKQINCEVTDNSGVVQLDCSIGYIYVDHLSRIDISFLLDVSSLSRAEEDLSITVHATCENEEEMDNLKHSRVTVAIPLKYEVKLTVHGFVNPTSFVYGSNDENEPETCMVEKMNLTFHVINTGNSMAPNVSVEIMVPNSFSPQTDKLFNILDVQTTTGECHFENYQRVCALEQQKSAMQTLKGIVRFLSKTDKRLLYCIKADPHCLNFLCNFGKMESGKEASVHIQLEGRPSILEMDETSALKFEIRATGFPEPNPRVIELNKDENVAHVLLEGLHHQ
T2 sequence (P05556 21-728 limits assumed): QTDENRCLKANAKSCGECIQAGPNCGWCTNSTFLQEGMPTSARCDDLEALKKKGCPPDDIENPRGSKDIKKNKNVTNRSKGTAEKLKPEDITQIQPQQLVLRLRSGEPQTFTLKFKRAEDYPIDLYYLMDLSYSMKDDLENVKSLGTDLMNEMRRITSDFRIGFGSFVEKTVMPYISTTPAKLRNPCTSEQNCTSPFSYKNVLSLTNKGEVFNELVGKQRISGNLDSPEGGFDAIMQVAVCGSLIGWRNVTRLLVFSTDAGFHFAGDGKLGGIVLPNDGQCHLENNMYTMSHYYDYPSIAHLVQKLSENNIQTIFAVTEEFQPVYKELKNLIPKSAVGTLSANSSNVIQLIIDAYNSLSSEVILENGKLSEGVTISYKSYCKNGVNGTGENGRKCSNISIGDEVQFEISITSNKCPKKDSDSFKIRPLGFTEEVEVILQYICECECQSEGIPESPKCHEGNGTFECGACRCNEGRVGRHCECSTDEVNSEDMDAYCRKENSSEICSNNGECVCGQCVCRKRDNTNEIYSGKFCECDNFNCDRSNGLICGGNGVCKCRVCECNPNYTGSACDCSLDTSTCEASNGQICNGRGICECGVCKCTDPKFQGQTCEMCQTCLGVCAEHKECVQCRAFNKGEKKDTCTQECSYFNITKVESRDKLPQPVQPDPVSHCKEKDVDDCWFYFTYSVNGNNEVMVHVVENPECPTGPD

Row | Compound | IC50 [1] | ELISA Assay Ratio β1/β7 [2] | IC50 [2] | Ratio Ramos/RPMI [1]
1 | CC(C)C[C@@H]1NC(=O)C[C@H](CCCCN)N(C)C(=O)[C@H](CCCCNC(=O)c2cc(C(=O)NCCCC[C@@H]3NC(=O)[C@@H]4CCCN4[C@H](C(=O)NC(C)(C)C)[C@H](C)NC(=O)[C@H]([C@@H](C)O)NC(=O)[C@H](CC(=O)O)NC(=O)[C@H](CC(C)C)NC(=O)C[C@H](CCCCN)N(C)C3=O)cc(C(=O)NCCCC[C@@H]3NC(=O)[C@@H]4CCCN4[C@H](C(=O)NC(C)(C)C)[C@H](C)NC(=O)[C@H]([C@@H](C)O)NC(=O)[C@H](CC(=O)O)NC(=O)[C@H](CC(C)C)NC(=O)C[C@H](CCCCN)N(C)C3=O)c2)NC(=O)[C@@H]2CCCN2[C@H](C(=O)NC(C)(C)C)[C@H](C)NC(=O)[C@H]([C@@H](C)O)NC(=O)[C@H](CC(=O)O)NC1=O [Compound 538] | 7650 nM | 1.3 | 13 nM | 
2 | CC(C)C[C@@H]1NC(=O)c2ccc(-c3ccc(N4CCN(C(=O)c5ccc(-c6ccc(C(=O)N7CCN(c8ccc(-c9ccc%10cc9CNC(=O)[C@@H]9CCCN9[C@H](C(=O)NC(C)(C)C)[C@H](C)NC(=O)[C@H]([C@@H](C)O)NC(=O)[C@H](CC(=O)O)NC(=O)[C@H](CC(C)C)NC%10=O)cc8)CC7)cc6)cc5)CC4)cc3)c(c2)CNC(=O)[C@@H]2CCCN2[C@H](C(=O)NC(C)(C)C)[C@H](C)NC(=O)[C@H]([C@@H](C)O)NC(=O)[C@H](CC(=O)O)NC1=O [Compound 474] | 1300 nM | 0.4 | 7.1 nM | 95
3 | CC(C)C[C@@H]1NC(=O)c2ccc(-c3ccc(N4CCN(Cc5cccc(CN6CCN(c7ccc(-c8ccc9cc8CNC(=O)[C@@H]8CCCN8[C@H](C(=O)NC(C)(C)C)[C@H](C)NC(=O)[C@H]([C@@H](C)O)NC(=O)[C@H](CC(=O)O)NC(=O)[C@H](CC(C)C)NC9=O)cc7)CC6)c5)CC4)cc3)c(c2)CNC(=O)[C@@H]2CCCN2[C@H](C(=O)NC(C)(C)C)[C@H](C)NC(=O)[C@H]([C@@H](C)O)NC(=O)[C@H](CC(=O)O)NC1=O [Compound 499] | 878 nM | 0.2 | 3.1 nM | 21
4 | CC(C)C[C@@H]1NC(=O)c2ccc(-c3ccc(N4CCN(C(=O)CCOCCOCCOCCOCCOCCOCCOCCOCCOCCOCCC(=O)N5CCN(c6ccc(-c7ccc8cc7CNC(=O)[C@@H]7CCCN7[C@H](C(=O)NC(C)(C)C)[C@H](C)NC(=O)[C@H]([C@@H](C)O)NC(=O)[C@H](CC(=O)O)NC(=O)[C@H](CC(C)C)NC8=O)cc6)CC5)CC4)cc3)c(c2)CNC(=O)[C@@H]2CCCN2[C@H](C(=O)NC(C)(C)C)[C@H](C)NC(=O)[C@H]([C@@H](C)O)NC(=O)[C@H](CC(=O)O)NC1=O [Compound 511] | 3990 nM | 0.6 | 7.2 nM | 133
5 | CC(C)C[C@@H]1NC(=O)c2ccc(-c3ccc(N4CCN(c5ncc([N+](=O)[O-])c(N6CCN(c7ccc(-c8ccc9cc8CNC(=O)[C@@H]8CCCN8[C@H](C(=O)NC(C)(C)C)[C@H](C)NC(=O)[C@H]([C@@H](C)O)NC(=O)[C@H](CC(=O)O)NC(=O)[C@H](CC(C)C)NC9=O)cc7)CC6)n5)CC4)cc3)c(c2)CNC(=O)[C@@H]2CCCN2[C@H](C(=O)NC(C)(C)C)[C@H](C)NC(=O)[C@H]([C@@H](C)O)NC(=O)[C@H](CC(=O)O)NC1=O [Compound 468] | 677 nM | 0.3 | 10 nM | 51
6 | COc1cc(C(=O)N2CCN(c3ccc(-c4ccc5cc4CNC(=O)[C@@H]4CCCN4[C@H](C(=O)NC(C)(C)C)[C@H](C)NC(=O)[C@H]([C@@H](C)O)NC(=O)[C@H](CC(=O)O)NC(=O)[C@H](CC(C)C)NC5=O)cc3)CC2)cc(-c2ccc(C(=O)N3CCN(c4ccc(-c5ccc6cc5CNC(=O)[C@@H]5CCCN5[C@H](C(=O)NC(C)(C)C)[C@H](C)NC(=O)[C@H]([C@@H](C)O)NC(=O)[C@H](CC(=O)O)NC(=O)[C@H](CC(C)C)NC6=O)cc4)CC3)cc2F)c1 [Compound 464] | 1550 nM |  | 22 nM | 
7 | CC(C)C[C@@H]1NC(=O)c2ccc(-c3ccc(N4CCN(C(=O)CCCCCCCCCCC(=O)N5CCN(c6ccc(-c7ccc8cc7CNC(=O)[C@@H]7CCCN7[C@H](C(=O)NC(C)(C)C)[C@H](C)NC(=O)[C@H]([C@@H](C)O)NC(=O)[C@H](CC(=O)O)NC(=O)[C@H](CC(C)C)NC8=O)cc6)CC5)CC4)cc3)c(c2)CNC(=O)[C@@H]2CCCN2[C@H](C(=O)NC(C)(C)C)[C@H](C)NC(=O)[C@H]([C@@H](C)O)NC(=O)[C@H](CC(=O)O)NC1=O [Compound 392] | 1840 nM | 0.3 | 6.3 nM | 65
8 | CC(C)C[C@@H]1NC(=O)C[C@H](CCCCN)N(C)C(=O)[C@H](CCCCNC(=O)CCCCCCCCC(=O)NCCCC[C@@H]2NC(=O)[C@@H]3CCCN3[C@H](C(=O)NC(C)(C)C)[C@H](C)NC(=O)[C@H]([C@@H](C)O)NC(=O)[C@H](CC(=O)O)NC(=O)[C@H](CC(C)C)NC(=O)C[C@H](CCCCN)N(C)C2=O)NC(=O)[C@@H]2CCCN2[C@H](C(=O)NC(C)(C)C)[C@H](C)NC(=O)[C@H]([C@@H](C)O)NC(=O)[C@H](CC(=O)O)NC1=O [Compound 530] | 10600 nM | 1.0 | 5.1 nM | 704
9 | CC(C)C[C@@H]1NC(=O)c2ccc(-c3ccc(N4CCN(C(=O)C[C@@H](N)C(=O)N5CCN(c6ccc(-c7ccc8cc7CNC(=O)[C@@H]7CCCN7[C@H](C(=O)NC(C)(C)C)[C@H](C)NC(=O)[C@H]([C@@H](C)O)NC(=O)[C@H](CC(=O)O)NC(=O)[C@H](CC(C)C)NC8=O)cc6)CC5)CC4)cc3)c(c2)CNC(=O)[C@@H]2CCCN2[C@H](C(=O)NC(C)(C)C)[C@H](C)NC(=O)[C@H]([C@@H](C)O)NC(=O)[C@H](CC(=O)O)NC1=O [Compound 493] | 1250 nM | 0.3 | 3.5 nM | 28
10 | CC(C)C[C@@H]1NC(=O)c2ccc(-c3ccc(N4CCN(Cc5ccc(CN6CCN(c7ccc(-c8ccc9cc8CNC(=O)[C@@H]8CCCN8[C@H](C(=O)NC(C)(C)C)[C@H](C)NC(=O)[C@H]([C@@H](C)O)NC(=O)[C@H](CC(=O)O)NC(=O)[C@H](CC(C)C)NC9=O)cc7)CC6)cc5)CC4)cc3)c(c2)CNC(=O)[C@@H]2CCCN2[C@H](C(=O)NC(C)(C)C)[C@H](C)NC(=O)[C@H]([C@@H](C)O)NC(=O)[C@H](CC(=O)O)NC1=O [Compound 500] | 1000 nM | 0.8 | 9.9 nM | 31
11 | CC(C)C[C@@H]1NC(=O)c2ccc(-c3ccc(N4CCN(C(=O)c5nccnc5C(=O)N5CCN(c6ccc(-c7ccc8cc7CNC(=O)[C@@H]7CCCN7[C@H](C(=O)NC(C)(C)C)[C@H](C)NC(=O)[C@H]([C@@H](C)O)NC(=O)[C@H](CC(=O)O)NC(=O)[C@H](CC(C)C)NC8=O)cc6)CC5)CC4)cc3)c(c2)CNC(=O)[C@@H]2CCCN2[C@H](C(=O)NC(C)(C)C)[C@H](C)NC(=O)[C@H]([C@@H](C)O)NC(=O)[C@H](CC(=O)O)NC1=O [Compound 467] | 876 nM | 0.1 | 1 nM | 20
12 | CC(C)C[C@@H]1NC(=O)c2ccc(-c3ccc(N4CCN(C(=O)C5(C(=O)N6CCN(c7ccc(-c8ccc9cc8CNC(=O)[C@@H]8CCCN8[C@H](C(=O)NC(C)(C)C)[C@H](C)NC(=O)[C@H]([C@@H](C)O)NC(=O)[C@H](CC(=O)O)NC(=O)[C@H](CC(C)C)NC9=O)cc7)CC6)Cc6ccccc6C5)CC4)cc3)c(c2)CNC(=O)[C@@H]2CCCN2[C@H](C(=O)NC(C)(C)C)[C@H](C)NC(=O)[C@H]([C@@H](C)O)NC(=O)[C@H](CC(=O)O)NC1=O [Compound 461] | 1220 nM | 0.4 | 7.9 nM | 31
